The values below are quoted from earlier work in EP4756025A1, “DSRNA TARGETING MAPT AND PHARMACEUTICAL USE THEREOF” (Tuojie Biotech (Shanghai) Co., Ltd., priority 2023, dated 2025).

For the series the following is noted: octanol-water partition coefficient, example in the definition of lipophilic moiety.

In the case of `CC(C)CCC[C@@H](C)[C@H]1CC[C@H]2[C@@H]3CC=C4C[C@@H](OC(=O)NCCCCCCO)CC[C@]4(C)[C@H]3CC[C@]12C` [cholesteryl N-(hexan-6-ol)carbamate], the logKow was 10.7.
`NCCCCCCO` [6-aminohexanol]: the logKow entry was “about 0.7”.
